Source: patent publication US20080161232A1, “C5a Receptor Antagonist” (JERINI AG, priority 2005, published 2008)
Starred links: 1 amine or outer side, 2 acyl side, 3 side chain; linkers in the order of their positions; H or OH if unused. Positions of bridges follow the written chain, without caps; N, C: chain ends. Non-standard residues stand in square brackets, D forms with d. Residues, ends and D or L forms follow the SMILES beside them. ξ: configuration not given here. *: point of attachment. Phe(Nα-CONH2) = NC(=O)N[C@@H](Cc1ccccc1)C(=O)*; dβ3hPhg = O=C(C[C@H](N[*:1])c1ccccc1)[*:2]; NMe2Phe = CN(C)[C@@H](Cc1ccccc1)C(=O)*; Phe(4-F) = N[C@@H](Cc1ccc(F)cc1)C(=O)O; dPhe(2-Me) = Cc1ccccc1C[C@@H](N)C(=O)O; X10 = CCN(CC)[C@@H](Cc1ccccc1)C(=O)*; Acetyl(4-pyridyl) = O=C(Cc1ccncc1)*; Bta = N[C@@H](Cc1csc2ccccc12)C(=O)O; NEtPhe = CCN[C@@H](Cc1ccccc1)C(=O)O; Morpholinoacetyl = O=C(CN1CCOCC1)*; Hydrocinnamoyl = O=C(CCc1ccccc1)*; Hyp = O=C(O)[C@@H]1C[C@@H](O)CN1; d(hLeu) = CC(C)CC[C@@H](N)C(=O)O; ξNip = O=C(C1CCCN([*:1])C1)[*:2]; 2Thi = N[C@@H](Cc1cccs1)C(=O)O; Cit = NC(=O)NCCC[C@H](N)C(=O)O; dCha = N[C@H](CC1CCCCC1)C(=O)O; Nicotinoyl = O=C(c1cccnc1)*; Morpholide = C1CN(*)CCO1; Nle = CCCC[C@H](N)C(=O)O; Orn = NCCC[C@H](N)C(=O)O; Aze = O=C(O)[C@@H]1CCN1; Fluoroacetyl = O=C(CF)*; CO = O=C([*:1])[*:2]; Propionyl = CCC(=O)*

biological target: T1, human C5aR(CD88) (Homo sapiens, UniProt P21730); test: Determination of the IC50 value in an enzyme release assay (functional assay, antagonistic activity); type: cell-based; settings: activity (group), antagonistic activity; IC50 group in enzyme release assay, RBL cells expressing human C5aR(CD88)
T1 construct: expressed in transfected cells; host or cells: rat basophilic leukemia cells (RBL)
T1 sequence (P21730 1-350): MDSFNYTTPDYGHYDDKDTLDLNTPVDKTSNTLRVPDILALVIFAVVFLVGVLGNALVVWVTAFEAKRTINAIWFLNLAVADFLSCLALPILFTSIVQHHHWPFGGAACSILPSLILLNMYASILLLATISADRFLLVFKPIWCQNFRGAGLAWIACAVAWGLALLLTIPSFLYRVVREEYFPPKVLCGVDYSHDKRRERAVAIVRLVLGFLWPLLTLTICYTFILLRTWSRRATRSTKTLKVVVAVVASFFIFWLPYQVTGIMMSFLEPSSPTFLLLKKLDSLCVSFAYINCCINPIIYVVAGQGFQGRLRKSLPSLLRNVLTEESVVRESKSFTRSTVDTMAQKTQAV

Row | Structure (SMILES) | IC50
1 | NCCC[C@H](NC(=O)[C@H](Cc1ccccc1)NC(=O)CF)C(=O)N1CC[C@H]1C(=O)N[C@H](CC1CCCCC1)C(=O)N[C@@H](Cc1csc2ccccc12)C(=O)N[C@@H](Cc1ccccc1)C(N)=O [Compound 321, FAc-Phe-Orn-Aze-cha-Bta-Phe-NH2] (Fluoroacetyl-F[Orn][Aze][dCha][Bta]F-NH2) | 20 to 50 nM

same assay, conditions: antagonistic activity; IC50 group in enzyme release assay, RBL cells expressing human C5aR(CD88); read-out: activity (group)

Row | Structure (SMILES) | IC50
2 | CC(=O)N[C@@H](Cc1ccccc1)C(=O)N[C@@H](CCCN)C(=O)N1CCC[C@H]1C(=O)N[C@H](Cc1ccccc1C)C(=O)N[C@@H](Cc1csc2ccccc12)C(=O)N[C@@H](Cc1ccccc1)C(N)=O [Compound 308, Ac-Phe-Orn-Pro-omf-Bta-Phe-NH2] (Ac-F[Orn]P[dPhe(2-Me)][Bta]F-NH2) | 50 to 200 nM
3 | CCC(=O)N[C@@H](Cc1ccccc1)C(=O)N[C@@H](CCCN)C(=O)N1CCC[C@H]1C(=O)N[C@H](CC1CCCCC1)C(=O)N[C@@H](Cc1csc2ccccc12)C(=O)N[C@@H](Cc1ccccc1)C(N)=O [Compound 316, CH3CH2CO-Phe-Orn-Pro-cha-Bta-Phe-NH2] (Propionyl-F[Orn]P[dCha][Bta]F-NH2) | 20 to 50 nM
4 | O=C(N[C@@H](Cc1ccccc1)C(=O)N[C@H]1CCCNC(=O)[C@H](Cc2ccccc2)NC(=O)[C@H](Cc2c[nH]c3ccccc23)NC(=O)[C@@H](CC2CCCCC2)NC(=O)[C@@H]2C[C@@H](O)CN2C1=O)c1cccnc1 [Compound 326, Fbn-Phe-[Orn-Hyp-cha-Trp-Phe]] (Nicotinoyl-F[Orn][Hyp][dCha]WF; lactam 2-C) | 50 to 200 nM
5 | CCCC[C@@H]1NC(=O)[C@H](Cc2c[nH]c3ccccc23)NC(=O)[C@@H](CC2CCCCC2)NC(=O)[C@@H]2CCCN2C(=O)[C@@H](NC(=O)[C@H](Cc2ccccc2)NC(=O)c2cccnc2)CCCNC1=O [Compound 327, Fbn-Phe-[Orn-Pro-cha-Trp-Nle]] (Nicotinoyl-F[Orn]P[dCha]W[Nle]; lactam 2-C) | 50 to 200 nM
6 | CC(C)CC[C@@H](NC(=O)[C@@H]1CCCN1C(=O)[C@H](CCCNC(N)=O)NC(=O)[C@H](Cc1ccccc1)NC(=O)c1cccnc1)C(=O)N[C@@H](Cc1csc2ccccc12)C(=O)N[C@@H](Cc1ccccc1)C(N)=O [Compound 329, Fbn-Phe-Cit-Pro-hle-Bta-Phe-NH2] (Nicotinoyl-F[Cit]P[d(hLeu)][Bta]F-NH2) | 50 to 200 nM
7 | CCCC[C@@H]1NC(=O)[C@H](Cc2c[nH]c3ccccc23)NC(=O)[C@@H](CC2CCCCC2)NC(=O)[C@@H]2CCCN2C(=O)[C@@H](NC(=O)[C@H](Cc2ccccc2)NC(=O)N2CCOCC2)CCCNC1=O [Compound 330, Fbo-Phe-[Orn-Pro-cha-Trp-Nle]] ({Morpholide-CO}-F[Orn]P[dCha]W[Nle]; lactam 2-C) | 50 to 200 nM
8 | CCCC[C@@H]1NC(=O)[C@H](Cc2c[nH]c3ccccc23)NC(=O)[C@@H](CC2CCCCC2)NC(=O)[C@@H]2CCCN2C(=O)[C@@H](NC(=O)[C@H](Cc2ccccc2)N(C)C)CCCNC1=O [Compound 331, Fbp-[Orn-Pro-cha-Trp-Nle]] (NMe2Phe-[Orn]P[dCha]W[Nle]; lactam 1-C) | 50 to 200 nM
9 | O=C(N[C@@H](Cc1ccccc1)C(=O)N[C@H]1CCCNC(=O)[C@H](Cc2ccccc2)NC(=O)[C@H](Cc2c[nH]c3ccccc23)NC(=O)[C@@H](CC2CCCCC2)NC(=O)[C@@H]2C[C@@H](O)CN2C1=O)C1CCCNC1 (stereo partly drawn) [Compound 332, Fci-[Phe-Orn-Hyp-cha-Trp-Phe]] (ξNip-F[Orn][Hyp][dCha]WF; lactam 2-C) | 50 to 200 nM
10 | CCCC[C@@H]1NC(=O)[C@H](Cc2c[nH]c3ccccc23)NC(=O)[C@@H](CC2CCCCC2)NC(=O)[C@@H]2CCCN2C(=O)[C@@H](NC(=O)[C@H](Cc2ccccc2)NC(=O)CON=C[C@H](O)[C@@H](O)[C@H](O)[C@H](O)CO)CCCNC1=O [Compound 333, Fck-[Phe-Orn-Pro-cha-Trp-Nle]] | 50 to 200 nM
11 | O=C(CN1CCOCC1)N[C@@H](Cc1ccccc1)C(=O)N[C@H]1CCCNC(=O)[C@H](Cc2ccccc2)NC(=O)[C@H](Cc2c[nH]c3ccccc23)NC(=O)[C@@H](CC2CCCCC2)NC(=O)[C@@H]2C[C@@H](O)CN2C1=O [Compound 335, Fha-Phe-[Orn-Hyp-cha-Trp-Phe]] (Morpholinoacetyl-F[Orn][Hyp][dCha]WF; lactam 2-C) | 50 to 200 nM

Results, then the molecule that gave them:

Row | IC50 | Structure (SMILES)
12 | 5 to 10 nM | CC[C@@H](C)[C@@H](NC(=O)[C@@H]1CCCN1C(=O)[C@H](CCCN)NC(=O)[C@H](Cc1ccccc1)NC(C)=O)C(=O)N[C@@H](Cc1c[nH]c2ccccc12)C(=O)N[C@@H](Cc1ccccc1)C(N)=O [Compound 307, Ac-Phe-Orn-Pro-ile-Trp-Phe-NH2] (Ac-F[Orn]P[dI]WF-NH2)
13 | 20 to 50 nM | CC(=O)N[C@@H](Cc1ccccc1)C(=O)N[C@@H](CCCN)C(=O)N[C@@H](CO)C(=O)N[C@H](CC1CCCCC1)C(=O)N[C@@H](Cc1csc2ccccc12)C(=O)N[C@@H](Cc1ccccc1)C(N)=O [Compound 309, Ac-Phe-Orn-Ser-cha-Bta-Phe-NH2] (Ac-F[Orn]S[dCha][Bta]F-NH2)
14 | 10 to 20 nM | CC(=O)N[C@@H](CO)C(=O)N[C@@H](Cc1ccccc1)C(=O)N[C@@H](CCCN)C(=O)N1CC[C@H]1C(=O)N[C@H](CC1CCCCC1)C(=O)N[C@@H](Cc1csc2ccccc12)C(=O)N[C@@H](Cc1ccccc1)C(N)=O [Compound 310, Ac-Ser-Phe-Orn-Aze-cha-Bta-Phe-NH2] (Ac-SF[Orn][Aze][dCha][Bta]F-NH2)
15 | 50 to 200 nM | CC(=O)N[C@@H](Cc1cccs1)C(=O)N[C@H]1CCCNC(=O)[C@H](Cc2ccccc2)NC(=O)[C@H](Cc2csc3ccccc23)NC(=O)[C@@H](CCC(C)C)NC(=O)[C@@H]2CCCN2C1=O [Compound 311, Ac-Thi-[Orn-Pro-hle-Bta-Phe]] (Ac-[2Thi][Orn]P[d(hLeu)][Bta]F; lactam 2-C)
16 | 20 to 50 nM | CC(=O)N[C@@H](Cc1cccs1)C(=O)N[C@@H](CCCN)C(=O)N1CCC[C@H]1C(=O)N[C@H](CC1CCCCC1)C(=O)N[C@@H](Cc1csc2ccccc12)C(=O)N[C@@H](Cc1ccccc1)C(N)=O [Compound 312, Ac-Thi-Orn-Pro-cha-Bta-Phe-NH2] (Ac-[2Thi][Orn]P[dCha][Bta]F-NH2)
17 | 20 to 50 nM | CC(=O)N[C@@H](Cc1cccs1)C(=O)N[C@@H](CCCN)C(=O)N1CCC[C@H]1C(=O)N[C@H](CC1CCCCC1)C(=O)N[C@@H](Cc1csc2ccccc12)C(=O)N[C@@H](Cc1cccs1)C(N)=O [Compound 313, Ac-Thi-Orn-Pro-cha-Bta-Thi-NH2] (Ac-[2Thi][Orn]P[dCha][Bta][2Thi]-NH2)
18 | 20 to 50 nM | CC(=O)N[C@H](C(=O)N[C@@H](Cc1ccccc1)C(=O)N[C@@H](CCCN)C(=O)N1CC[C@H]1C(=O)N[C@H](CC1CCCCC1)C(=O)N[C@@H](Cc1csc2ccccc12)C(=O)N[C@@H](Cc1ccccc1)C(N)=O)[C@@H](C)O [Compound 314, Ac-Thr-Phe-Orn-Aze-cha-Bta-Phe-NH2] (Ac-TF[Orn][Aze][dCha][Bta]F-NH2)
19 | 50 to 200 nM | CCCC[C@@H]1NC(=O)[C@H](Cc2csc3ccccc23)NC(=O)[C@@H](CC2CCCCC2)NC(=O)[C@@H]2CCCN2C(=O)[C@@H](NCc2ccccc2)CCCNC1=O [Compound 315, Bzl-[Orn-Pro-cha-Bta-Nle]]
20 | 50 to 200 nM | CCCC[C@@H]1NC(=O)[C@H](Cc2c[nH]c3ccccc23)NC(=O)[C@@H](CCC(C)C)NC(=O)[C@H](CO)NC(=O)[C@@H](NC(=O)[C@H](Cc2ccccc2)N(CC)CC)CCCNC1=O [Compound 317, Def-[Orn-Ser-hle-Trp-Nle]] (X10-[Orn]S[d(hLeu)]W[Nle]; lactam 1-C)
21 | 50 to 200 nM | N[C@@H](CC(=O)N[C@@H](Cc1ccccc1)C(=O)N[C@H]1CCCNC(=O)[C@H](Cc2ccccc2)NC(=O)[C@H](Cc2c[nH]c3ccccc23)NC(=O)[C@@H](CC2CCCCC2)NC(=O)[C@@H]2C[C@@H](O)CN2C1=O)c1ccccc1 [Compound 318, Eby-Phe-[Orn-Hyp-cha-Trp-Phe]] (dβ3hPhg-F[Orn][Hyp][dCha]WF; lactam 2-C)
22 | 50 to 200 nM | CCCC[C@@H]1NC(=O)[C@H](Cc2ccc(F)cc2)NC(=O)[C@@H](CCC(C)C)NC(=O)[C@@H]2CCCN2C(=O)[C@@H](NC(=O)[C@H](Cc2ccccc2)NCC)CCCNC1=O [Compound 319, Eth-Phe-[Orn-Pro-hle-Pff-Nle]] (H-[NEtPhe][Orn]P[d(hLeu)][Phe(4-F)][Nle]; lactam 2-C)
23 | 50 to 200 nM | NC(=O)N[C@@H](Cc1ccccc1)C(=O)N[C@H]1CCCNC(=O)[C@H](Cc2ccccc2)NC(=O)[C@H](Cc2c[nH]c3ccccc23)NC(=O)[C@@H](CC2CCCCC2)NC(=O)[C@@H]2C[C@@H](O)CN2C1=O [Compound 323, Fai-Phe-[Orn-Hyp-cha-Trp-Phe]] ({Phe(Nα-CONH2)}-[Orn][Hyp][dCha]WF; lactam 1-C)
24 | 50 to 200 nM | NCCC[C@H](NC(=O)CCc1ccccc1)C(=O)N1CCC[C@H]1C(=O)N[C@H](CC1CCCCC1)C(=O)N[C@@H](Cc1csc2ccccc12)C(=O)N[C@@H](Cc1ccccc1)C(N)=O [Compound 324, Faz-Orn-Pro-cha-Bta-Phe-NH2] (Hydrocinnamoyl-[Orn]P[dCha][Bta]F-NH2)
25 | 50 to 200 nM | CCCC[C@@H]1NC(=O)[C@H](Cc2c[nH]c3ccccc23)NC(=O)[C@@H](CC2CCCCC2)NC(=O)[C@@H]2CCCN2C(=O)[C@@H](NC(=O)[C@H](Cc2ccccc2)NC(=O)Cc2ccncc2)CCCNC1=O [Compound 325, Fbi-Phe-[Orn-Pro-cha-Trp-Nle]] ({Acetyl(4-pyridyl)}-F[Orn]P[dCha]W[Nle]; lactam 2-C)
26 | 10 to 20 nM | CCCC[C@@H]1NC(=O)[C@H](Cc2c[nH]c3ccccc23)NC(=O)[C@@H](CC2CCCCC2)NC(=O)[C@@H]2CCCN2C(=O)[C@@H](NC(=O)[C@H](Cc2ccccc2)NC(=O)c2cccnc2)CCCNC1=O [Compound 328, Fbn-Phe-[Orn-Pro-cha-Trp-Nle]] (Nicotinoyl-F[Orn]P[dCha]W[Nle]; lactam 2-C)
